Experimental data published in patent US9453226B2, “Protection of cells from Alu-RNA-induced degeneration and inhibitors for protecting cells” (UNIVERSITY OF KENTUCKY RESEARCH FOUNDATION, priority 2011, dated 2016).

Experiments:
RPE = assay: pAlu-induced RPE degeneration in wild-type mice, inhibitors given intravitreously; type: in vivo; settings: WT mice, subretinal pAlu, inhibitor intravitreous, fundus photographs and ZO-1 flat mounts
Protocol: Subretinal injection and imaging. Subretinal injections (1 μL) were performed using a Pico-Injector (PLI-100, Harvard Apparatus). Plasmids were transfected in vivo using 10% Neuroporter (Genlantis). Fundus imaging was performed on a TRC-50 IX camera (Topcon) linked to a digital imaging system (Sony). RPE flat mounts were immunolabeled using antibodies against zonula occludens-1 (Invitrogen).
Retinal photographs of dilated mouse eyes were taken with a TRC-50 IX camera (Topcon) linked to a digital imaging system (Sony).
Human eyes fixed in 2-4% paraformaldehyde were prepared as eyecups, cryoprotected in 30% sucrose, embedded in optimal cutting temperature compound (Tissue-Tek OCT; Sakura Finetek), and cryosectioned into 10 μm sections. Depigmentation was achieved using 0.25% potassium permanganate and 0.1% oxalic acid. Immunohistochemical staining was performed with the rabbit antibody against NLRP3 (1:100, Sigma Aldrich) or rabbit antibody against Caspase-1 (prediluted, AbCam). Isotype IgG was substituted for the primary antibody to assess the specificity of the staining. Bound antibody was detected with biotin-conjugated secondary antibodies, followed by incubation with ABC reagent and visualized by Vector Blue (Vector Laboratories). Levamisole (Vector Laboratories) was used to block endogenous alkaline phosphatase activity. Slides were washed in PBS, counterstained with neutral red (Fisher Scientific), rinsed with deionized water, air dried, and then mounted in Vectamount (Vector Laboratories). Fluorescent labeling of human tissue was performed with the rabbit antibody against PYCARD (1:50, Clone N-15, Santa Cruz Biotechnology) Immunolabeling was visualized by fluorescently conjugated anti-rabbit secondary antibody (Invitrogen). Tissue autofluorescence was quenched by incubating the sections in 0.3% Sudan black (Fisher Scientific). Sections were mounted in Vectashield with DAPI (Vector Laboratories). Mouse RPE/choroid flat mounts were fixed with 4% paraformaldehyde or 100% methanol, stained with rabbit antibodies against human zonula occludens-1 (1:100, Invitrogen) and visualized with Alexa594 (Invitrogen). All images were obtained using the Leica SP-5 or Zeiss Axio Observer Z1 microscopes.
Subretinal injections (1 μL) in mice were performed using a Pico-Injector (PLI-100, Harvard Apparatus). In vivo transfection of plasmids coding for two different Alu sequences (pAlu) or empty control vector (pNull) (Bennett et al., 2008; Kaneko et al., 2011; Shaikh et al., 1997) was achieved using 10% Neuroporter (Genlantis). AAV1-BEST1-Cre (Alexander and Hauswirth, 2008) or AAV1-BEST1-GFP were injected at 1.0×10^11 pfu/mL and in vitro transcribed Alu RNA was injected at 0.3 mg/mL.
siRNAs formulated in siRNA buffer (20 mM KCL, 0.2 mM MgCl2 in HEPES buffer at pH 7.5; Dharmacon) or phosphate buffered saline (PBS; Sigma-Aldrich); the TLR4 antagonist Ultra Pure Rhodobacter sphaeroides LPS (LPS-RS, InvivoGen), a peptide inhibitor of MyD88 homodimerization IMG-2005 (IMGENEX), control inhibitor (IMGENEX), recombinant IL-18 (Medical & Biological Laboratories), neutralizing rat antibodies against mouse IL-1β (IMGENEX), neutralizing rat antibodies against mouse IL-18 (Medical & Biological Laboratories), isotype control IgGs (R&D Systems or eBioscience as appropriate), Caspase-1 inhibitor Z-WEHD-FMK (R&D Systems), Caspase control inhibitor Z-FA-FMK (R&D Systems), DPI (Enzo Life Sciences), Mito-TEMPO (Enzo Life Sciences), MitoQ and dTPP (both adsorbed to cyclodextrin and provided by M.P. Murphy, MRC Mitochondrial Biology Unit), and gp91ds-tat and scrambled gp91 ds-tat (both Anaspec), were dissolved in phosphate buffered saline (PBS; Sigma-Aldrich) or dimethyl sulfoxide (DMSO; Sigma-Aldrich), and injected into the vitreous humor in a total volume of 1 μL with a 33-gauge Exmire microsyringe (Ito Corporation). […] As a control, Luc siRNA-chol (17+2 nt) was used with identical dosages. […]

IRAK1/4 phosphorylation = IRAK1/4 phosphorylation in human RPE cells (Western blot); type: cell-based; settings: human RPE cells; normalized to Vinculin
Protocol: Protein abundance was assessed by Western blot analysis using antibodies against Caspase-1 (1:500; Invitrogen), pIRAK1 (1:500; Thermo Scientific), pIRAK4 (1:500, Abbomax), PYCARD (1:200, Santa Cruz Biotechnology), NLRP3 (1:500, Enzo Life Sciences) and Vinculin (1:1,000; Sigma-Aldrich). Caspase-1 activity was visualized using Caspalux1 E1D2 (Oncolmmunin) according to manufacturer's instructions.
Tissues or cells were homogenized in lysis buffer (10 mM Tris base, pH 7.4, 150 mM NaCl, 1 mM EDTA, 1 mM EGTA, 1% Triton X-100, 0.5% NP-40, protease and phosphatase inhibitor cocktail (Roche)). Protein concentrations were determined using a Bradford assay kit (Bio-Rad) with bovine serum albumin as a standard. Proteins (40-100 μg) were run on NuPAGE Bis-Tris gels (Invitrogen) and transferred to Immun-Blot PVDF membranes (Bio-Rad). Cells were scraped in hot Laemmli buffer (62.5 mM Tris base, pH 6.8, 2% SDS, 5% 2-Mercaptoethanol, 10% Glycerol, 0.01% Bromophenol Blue). Samples were boiled and run on 4-20% NuPAGE Tris-Glycine gels (Invitrogen). The transferred membranes were blocked for 1 h at RT and incubated with antibodies against human Caspase-1 (1:500; Invitrogen), mouse Caspase 1 (1:500; MBL), NLRP3 (1:1000; Enzo Life Sciences), PYCARD (1:1000, RayBiotech), phospho-IRAK1 (S376) (1:500, Thermo Scientific), phospho-IRAK4 (T345) (1:500, AbboMax), DICER1 (1:2,000; Bethyl), MyD88 (1:1,000; Cell Signaling), and mouse IL-18 (1:200; MBL) at 4° C. overnight. Protein loading was assessed by immunoblotting using an anti-Vinculin antibody (1:1,000; Sigma-Aldrich). The secondary antibodies were used (1:5,000) for 1 h at RT. The signal was visualized by enhanced chemiluminescence (ECL plus) and captured by VisionWorksLS Image Acquisition and Analysis software (Version 6.7.2, UVP, LLC).

Z-WEHD-FMK
pAlu-induced RPE degeneration (RPE): blocked
pAlu-induced RPE degeneration (RPE; listed as Caspase-1 peptide inhibitor): protects
Alu RNA-induced IRAK1/4 phosphorylation (IRAK1/4 phosphorylation): reduced

DRQIKIWFQNRRMKWKKRDVLPGT [MyD88 inhibitory peptide]
pAlu-induced RPE degeneration (RPE): inhibited
Alu RNA-induced IRAK1/4 phosphorylation (IRAK1/4 phosphorylation): reduces
